We go through 28 compounds from patent US8168592B2 (Amgen Inc., priority 2005, dated 2012).

Where two headings read alike, the source gives them in different places. Bridge positions count the residues as written; N and C are the ends. Square brackets hold non-standard residues; d marks the D form. Ends that are not written are not given here. Peptide text beside a SMILES is read from it. Oic = O=C(O)[C@@H]1C[C@@H]2CCCC[C@@H]2N1; 1Nal = N[C@@H](Cc1cccc2ccccc12)C(=O)O; 2Nal = N[C@@H](Cc1ccc2ccccc2c1)C(=O)O; hArg = N=C(N)NCCCC[C@H](N)C(=O)O; Cit = NC(=O)NCCC[C@H](N)C(=O)O; Nle = CCCC[C@H](N)C(=O)O; PEG = not defined here

Broadly, the IC50 is the concentration at which inhibition is half-maximal.

For this assay, the target named is T1, CGRP1 receptor (Homo sapiens, UniProt O60894+Q16602).
T1 construct: SK-N-MC cells express CRLR and RAMP1, which form CGRP1 receptor; endogenous in cells; host or cells: SK-N-MC human neuroblastoma cells
In words: in vitro CGRP1 receptor mediated cAMP assay in SK-N-MC cells. Type of assay: cell-based. In a few lines:
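Intracellular cAMP served as the Gs-coupled CGRP1 readout in endogenously expressing SK-N-MC cells. After a 15-minute room-temperature step in plasma-free medium, cell lysates (30 minutes, 37° C) went into a competitive ELISA with a cAMP-AP conjugate and anti-cAMP antibody for 1 hour, then a 30-minute substrate enhancer step before reading.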

Where [1] appears, read: Table 2C, unconjugated peptide, read-out: Peptide IC50.
Setting [2] is: Table 3, unconjugated CGRP peptide analogs, n = 2-4, read-out: IC50.

T1 sequence (Q16602 23-461): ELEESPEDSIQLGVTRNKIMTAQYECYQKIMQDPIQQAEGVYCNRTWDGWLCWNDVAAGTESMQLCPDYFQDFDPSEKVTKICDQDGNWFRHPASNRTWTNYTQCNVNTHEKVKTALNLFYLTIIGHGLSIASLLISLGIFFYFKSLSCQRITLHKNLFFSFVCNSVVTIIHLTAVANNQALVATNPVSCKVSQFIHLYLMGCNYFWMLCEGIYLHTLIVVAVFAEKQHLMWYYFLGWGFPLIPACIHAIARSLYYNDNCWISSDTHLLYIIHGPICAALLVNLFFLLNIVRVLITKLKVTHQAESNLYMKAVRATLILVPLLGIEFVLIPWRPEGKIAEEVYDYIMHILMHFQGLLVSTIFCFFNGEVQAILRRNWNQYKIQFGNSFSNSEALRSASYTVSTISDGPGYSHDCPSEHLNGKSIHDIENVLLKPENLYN
T1 sequence (O60894 27-148): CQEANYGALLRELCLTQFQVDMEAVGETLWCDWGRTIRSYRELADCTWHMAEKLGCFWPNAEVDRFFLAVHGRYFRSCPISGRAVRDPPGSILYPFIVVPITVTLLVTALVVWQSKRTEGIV

For `CC(=O)N[C@@H](Cc1c[nH]c2ccccc12)C(=O)N[C@H](C(=O)N[C@H](C(=O)N[C@@H](Cc1c[nH]cn1)C(=O)N[C@@H](CCCNC(N)=O)C(=O)N[C@@H](CC(C)C)C(=O)N[C@@H](C)C(=O)NCC(=O)N[C@@H](CC(C)C)C(=O)N[C@@H](CC(C)C)C(=O)N[C@@H](CO)C(=O)N[C@@H](CCCNC(N)=O)C(=O)N[C@@H](CO)C(=O)NCC(=O)NCC(=O)N[C@H](C(=O)N[C@H](C(=O)N[C@@H](CCCCNC(=N)N)C(=O)N[C@@H](CCCCN)C(=O)N[C@@H](CC(N)=O)C(=O)N[C@@H](Cc1ccccc1)C(=O)N[C@H](C(=O)N1CCC[C@H]1C(=O)N[C@H](C(=O)N[C@@H](CC(=O)O)C(=O)N[C@H](C(=O)NCC(=O)N1[C@H](C(=O)N[C@@H](Cc2cccc3ccccc23)C(=O)N[C@@H](C)C(=O)N[C@@H](Cc2ccccc2)C(N)=O)C[C@@H]2CCCC[C@@H]21)C(C)C)[C@@H](C)O)C(C)C)C(C)C)C(C)C)[C@@H](C)O)C(C)C` [compound 933] (Ac-WVTH[Cit]LAGLLS[Cit]SGGVV[hArg]KNFVPTDVG[Oic][1Nal]AF-NH2), the IC50 under setting [1] amounted to 0.88 nM. Same read-out and setting: next, `CCCC[C@H](NC(=O)[C@@H](NC(=O)CNC(=O)CNC(=O)[C@H](CO)NC(=O)[C@H](CCCNC(N)=O)NC(=O)[C@H](CO)NC(=O)[C@H](CC(C)C)NC(=O)[C@H](CC(C)C)NC(=O)CNC(=O)[C@H](C)NC(=O)[C@H](CC(C)C)NC(=O)[C@H](CCCNC(N)=O)NC(=O)[C@H](Cc1c[nH]cn1)NC(=O)[C@@H](NC(=O)[C@@H](NC(=O)[C@H](Cc1c[nH]c2ccccc12)NC(C)=O)C(C)C)[C@@H](C)O)C(C)C)C(=O)N[C@@H](CCCNC(=N)N)C(=O)N[C@@H](CCCCN)C(=O)N[C@@H](CC(N)=O)C(=O)N[C@@H](Cc1ccccc1)C(=O)N[C@H](C(=O)N1CCC[C@H]1C(=O)N[C@H](C(=O)N[C@@H](CC(=O)O)C(=O)N[C@H](C(=O)NCC(=O)N1CCC[C@H]1C(=O)N[C@@H](Cc1ccccc1)C(=O)N[C@@H](C)C(=O)N[C@@H](Cc1ccccc1)C(N)=O)C(C)C)[C@@H](C)O)C(C)C` [compound 940] (Ac-WVTH[Cit]LAGLLS[Cit]SGGV[Nle]RKNFVPTDVGPFAF-NH2): 1.85 nM.

Take `CC(=O)N[C@@H](Cc1c[nH]c2ccccc12)C(=O)N[C@H](C(=O)N[C@H](C(=O)N[C@@H](Cc1c[nH]cn1)C(=O)N[C@@H](CCCCNC(=N)N)C(=O)N[C@@H](CC(C)C)C(=O)N[C@H]1CCC(=O)NCCCC[C@@H](C(=O)N[C@@H](CCCNC(N)=O)C(=O)N[C@@H](CO)C(=O)NCC(=O)NCC(=O)N[C@H](C(=O)N[C@H](C(=O)N[C@@H](CCCCNC(=N)N)C(=O)N[C@@H](CCCCN)C(=O)N[C@@H](CC(N)=O)C(=O)N[C@@H](Cc2ccccc2)C(=O)N[C@H](C(=O)N2CCC[C@H]2C(=O)N[C@H](C(=O)N[C@@H](CC(=O)O)C(=O)N[C@H](C(=O)NCC(=O)N2[C@H](C(=O)N[C@@H](Cc3ccccc3)C(=O)N[C@@H](C)C(=O)N[C@@H](Cc3ccccc3)C(N)=O)C[C@@H]3CCCC[C@@H]32)C(C)C)[C@@H](C)O)C(C)C)C(C)C)C(C)C)NC(=O)[C@H](CC(C)C)NC(=O)[C@H](CC(C)C)NC(=O)CNC1=O)[C@@H](C)O)C(C)C` [compound 942] (Ac-WVTH[hArg]LEGLLK[Cit]SGGVV[hArg]KNFVPTDVG[Oic]FAF-NH2; lactam 7-11): the IC50 under setting [1] turned out to be 0.83 nM. On the same count and under the same terms, next, `CC(=O)N[C@@H](Cc1c[nH]c2ccccc12)C(=O)N[C@H](C(=O)N[C@H](C(=O)N[C@@H](Cc1c[nH]cn1)C(=O)N[C@@H](CCCNC(N)=O)C(=O)N[C@@H](CC(C)C)C(=O)N[C@@H](C)C(=O)NCC(=O)N[C@H]1CCC(=O)NCCCC[C@@H](C(=O)NCC(=O)NCC(=O)N[C@H](C(=O)N[C@H](C(=O)N[C@@H](CCCCNC(=N)N)C(=O)N[C@@H](CCCCN)C(=O)N[C@@H](CC(N)=O)C(=O)N[C@@H](Cc2ccccc2)C(=O)N[C@H](C(=O)N2CCC[C@H]2C(=O)N[C@H](C(=O)N[C@@H](CC(=O)O)C(=O)N[C@H](C(=O)NCC(=O)N2[C@H](C(=O)N[C@@H](Cc3cccc4ccccc34)C(=O)N[C@@H](C)C(=O)N[C@@H](Cc3ccccc3)C(N)=O)C[C@@H]3CCCC[C@@H]32)C(C)C)[C@@H](C)O)C(C)C)C(C)C)C(C)C)NC(=O)[C@H](CCCCNC(=N)N)NC(=O)[C@H](CO)NC(=O)[C@H](CC(C)C)NC1=O)[C@@H](C)O)C(C)C` [compound 944] (Ac-WVTH[Cit]LAGELS[hArg]KGGVV[hArg]KNFVPTDVG[Oic][1Nal]AF-NH2; lactam 9-13): 0.85 nM. Still for that read-out and setting: for `CC(=O)N[C@@H](Cc1c[nH]c2ccccc12)C(=O)N[C@H](C(=O)N[C@H](C(=O)N[C@@H](Cc1c[nH]cn1)C(=O)N[C@@H](CCCNC(N)=O)C(=O)N[C@@H](CC(C)C)C(=O)N[C@@H](C)C(=O)NCC(=O)N[C@@H](CC(C)C)C(=O)N[C@@H](CC(C)C)C(=O)N[C@H](CO)C(=O)N[C@@H](CCCNC(N)=O)C(=O)N[C@@H](CO)C(=O)NCC(=O)NCC(=O)N[C@H](C(=O)N[C@H](C(=O)N[C@@H](CCCCNC(=N)N)C(=O)N[C@@H](CCCCN)C(=O)N[C@@H](CC(N)=O)C(=O)N[C@@H](Cc1ccc2ccccc2c1)C(=O)N[C@H](C(=O)N1CCC[C@H]1C(=O)N[C@H](C(=O)N[C@@H](CC(=O)O)C(=O)N[C@H](C(=O)NCC(=O)N1[C@H](C(=O)N[C@@H](Cc2ccccc2)C(=O)N[C@@H](C)C(=O)N[C@@H](Cc2ccccc2)C(N)=O)C[C@@H]2CCCC[C@@H]21)C(C)C)[C@@H](C)O)C(C)C)C(C)C)C(C)C)[C@@H](C)O)C(C)C` [compound 953] (Ac-WVTH[Cit]LAGLL[dS][Cit]SGGVV[hArg]KN[2Nal]VPTDVG[Oic]FAF-NH2) the value was 2.66 nM; for “Ac-WVTHQLAGLLSQSGGVVRKNFVPTDVGPFAF-NH2 [compound 857]”, 0.53 nM. For “Ac-WVTHRLAGLLSASGGVVRCNFVPTDVGPFAF-NH2 [compound 772]”, the IC50 (Table 2D, read-out: IC50) was 2.75 nM. As for “Ac-WVTHRLAGLLSQSGGVVRCNFVPTDVGPFAF-NH2 [compound 35]”, where the note is “Table 7, R11 and/or R18 stability analogs, with or without 20 kDa PEG, read-out: IC50”, the IC50 came to 0.37 nM.

Turning to “Ac-WVTHRLAGLLSQSGGVVRKNFVPTDVGPFAF-NH2 [compound 856]”, under setting [1], the IC50 came out at 0.47 nM.

With “Ac-WVTHRLAGLLSRPGGVVRKNFVPTDVGPFAF-NH2 [compound 854]”, the IC50 (Table 2D, read-out: IC50) stood at 1.27 nM. As for “Ac-WVTHRLAGLLSRPGGVVRKNFVPTDVGPFAF-NH2 [compound 860]”, the IC50 under setting [1] is 1.42 nM. “Ac-WVTHRLAGLLSRSGGVCRNNFVPTDVGPFAF-NH2 [compound 820]”: the IC50 (Table 2D, read-out: IC50) came to 0.36 nM. On to “Ac-WVTHRLAGLLSRSGGVKRNNFVPTDVGPFAF-NH2 [compound 823]”, for which the IC50 (Table 2D, read-out: IC50) is 0.51 nM.

As for “Ac-WVTHRLAGLLSRSGGVVCNNFVPTDVGPFAF-NH2 [compound 9]”, the IC50 under setting [2] worked out at 2.15 nM.

In the case of “Ac-WVTHRLAGLLSRSGGVVRKNFVPTDVGSKAF-NH2 [compound 915]”, the IC50 under setting [1] worked out at 1.15 nM. Take “H-CGGGGGGGVTHRLAGLLSRSGGVVKNNFVPTDVGPFAF-NH2 [compound 3]”: the IC50 under setting [2] stood at 0.72 nM. For “SEQ ID NO:2 (CGGGGGGGVTHRLAGLLSRSGGVVKNNFVPTNVGSKAF-NH2)”, the “antagonist activity in cAMP assay, in words” value (“antagonist activity … in words” for short) is “deleterious to potency”. With “SEQ ID NO:3 (CGGGGGGGVTHRLAGLLSRSGGVVKNNFVPTDVGPFAF-NH2)”, the “improved potency relative to native CGRP(8-37) (SEQ ID NO:1)” value (cAMP assay) is “more than 6 fold”.

Consider “SEQ ID NO:4 (WVTHRLAGLLSRSGGVVKNNFVPTNVGSKAF-NH2)”, for which the “improved potency relative to native CGRP(8-37) (SEQ ID NO:1)” value (cAMP assay) is “greater than 7 fold”. Still for that read-out and setting: for “SEQ ID NO:5 (Ac-WVTHRLAGLLSRSGGVVKNNFVPTDVGPFAF-NH2)” the value was “greater than 35 fold”. With “SEQ ID NO:8 (Ac-WVTHRLAGLLSRSGGVVRCNFVPTDVGPFAF-NH2)”, the “antagonist activity … in words” value was “somewhat less active”. Moreover, the “improvement in potency compared to SEQ ID NO:9” value (unPEGylated peptides) is “more than 4 fold”. On to “SEQ ID NO:9 (Ac-WVTHRLAGLLSRSGGVVCNNFVPTDVGPFAF-NH2)”, for which the “antagonist activity … in words” value is “somewhat less active”. As for “SEQ ID NO:14 (Ac-WVTHRLAGLLSRSGGVVC(PEG)NNFVPTDVGPFAF-NH2; reading uncertain)”, the “antagonist activity … in words” value is recorded as “little effect on the antagonist activity of the parent peptide”. Turning to “SEQ ID NO:16 (Ac-WVTHRLAGLLSRSGGVVRK(PEG)NFVPTDVGPFAF-NH2; reading uncertain)”, under “cAMP assay”, the “improved potency relative to native CGRP(8-37) (SEQ ID NO:1)” value was “about 12 fold” and the “loss in antagonist activity on PEGylation relative to the unconjugated parent peptide” value was “three”. As for “SEQ ID NO:21 (WVTHXLAGLLSRSGGVVRKNFVPTDVGPFAF; CGRP peptide; MOD_RES (1)..(1): …ON; MISC_FEATURE (5)..(5): xaa=homoarginine; MOD_RES (31)..(31): AMIDATION)”, the “antagonist activity … in words” value was “well tolerated”.

For the compound “SEQ ID NO:22 (WVTHXLAGLLSRSGGVVRKNFVPTDVGPFAF; CGRP peptide; MOD_RES (1)..(1): …ON; MISC_FEATURE (5)..(5): xaa=homoarginine; MISC_FEATURE (19)..(19): PEGylated; MOD_RES (31)..(31): AMIDATION)”, the “antagonist activity … in words” value was “retaining their CGRP1 receptor antagonist activity”. The same measure, in the same setting: for “SEQ ID NO:23 (WVTHRLAGLLSXSGGVVRKNFVPTDVGPFAF; CGRP peptide; MOD_RES (1)..(1): …ON; MISC_FEATURE (12)..(12): xaa=homoarginine; MOD_RES (31)..(31): AMIDATION)” the value was “well tolerated”; for “SEQ ID NO:24 (WVTHRLAGLLSXSGGVVRKNFVPTDVGPFAF; CGRP peptide; MOD_RES (1)..(1): …ON; MISC_FEATURE (12)..(12): xaa=homoarginine; MISC_FEATURE (19)..(19): PEGylated; MOD_RES (31)..(31): AMIDATION)”, “retaining their CGRP1 receptor antagonist activity”.
